This is an account of results in patent US20240425464A1, “Substituted Monohydrazides as Potent Antifungal Agents” (University of Kentucky Research Foundation, priority 2023, published 2024).

In brackets after ≈: the same amount, converted by molar mass. Like-named read-outs stand apart in the source and are kept apart here. Some results are limits rather than exact numbers.

What all share (format): cell-based, Candida auris
In one assay the test system is C. auris AR Bank #381. Briefly: MIC determination by in vitro antifungal assay. To be noted: C. auris AR Bank # 381 (Table 2B). The procedure: (§1) The antifungal agent amphotericin B (AmB) was purchased from VWR (Radnor PA, USA). AmB was dissolved in DMSO at a final concentration of 5 mg/mL and was stored at −20° C., protected from light. Candida albicans American Type Culture Collection (ATCC) 10231 (strain A), C. albicans ATCC 64124 (B), and C. albicans ATCC MYA-2876 (C) were obtained from Utah State University. C. albicans ATCC 90819 (D), C. albicans ATCC MYA-2310 (E), C. albicans ATCC MYA-1237 (F), C. albicans ATCC MYA-1003 (G), Candida glabrata ATCC 2001 (H), Candida krusei ATCC 6258 (I), Candida parapsilosis ATCC 22019 (J), Cryptococcus neoformans ATCC MYA-895 (M), Aspergillus terreus ATCC MYA-3633 (N), and Aspergillus flavus ATCC MYA-3631 (0) were obtained from the American Type Culture Collection (ATCC; Manassas, VA, USA). Aspergillus nidulans ATCC 38163 (P) was obtained from University of Kentucky. Clinically derived Aspergillus fumigatus NRRL 163 (Q), A. fumigatus NRRL 5109 (R), and A. fumigatus NRRL 6113 (S) were obtained from Northern Regional Research Laboratory (NRRL). Candida auris 384 (K), C. auris 390 (L), and fungal strains 381-400 (including 10 C. auris (AR Bank #381-390), 3 Candida duobushaemulonii (AR Bank #391, AR Bank #392, and AR Bank #394), 2 Candida haemulonii (AR Bank #393 and AR Bank #395), 1 Kodameae ohmeri (AR Bank #396), 1 C. krusei (AR Bank #397), 1 Candida lusitaniae (AR Bank #398), and 2 Saccharomyces cerevisiae strains (AR Bank #399 and AR Bank #400)) were part of a larger fungal library from the AR Bank maintained by the Centers for Disease Control and Prevention (CDC; Atlanta, GA, USA). Filamentous fungi and yeasts were cultivated at 35° C. in RPMI 1640 medium (with L-glutamine, without sodium bicarbonate, Sigma-Aldrich, St. Louis, MO) buffered to a pH of 7.0 with 0.165 M morpholinepropanesulfonic acid (MOPS) buffer (Sigma-Aldrich). For cytotoxicity assays, HepG2 and the mouse macrophage cell line J774A.1 were obtained from University of Kentucky. The human embryonic kidney cell line, HEK-293, was bought from the ATCC. Mammalian cells were grown in Dulbecco's Modified Eagle's Medium (DMEM) (from VWR) with 10% fetal bovine serum (FBS) (from VWR) and 1% Pen/Strep (from ATCC). Cell lines were cultured at 37° C. with 5% CO2 and passaged by trypsinization with 0.05% trypsin: 0.53 mM EDTA (from Sigma-Aldrich).
(§2) From the actively growing yeast culture, 100 µL were then transferred to 900 μL of RPMI 1640 medium and re-adjusted to achieve OD600 of 0.12 (˜1×10^6 CFU/mL). The cell suspension was further diluted to achieve 1:100 in RPMI 1640 medium.

The next assay has as its system C. auris AR Bank #382. Briefly: MIC determination by in vitro antifungal assay. The following applies: C. auris AR Bank # 382 (Table 2B). The procedure: as §1, §2
A further assay concerns C. auris AR Bank #383. Briefly: MIC determination by in vitro antifungal assay. The following applies: C. auris AR Bank # 383 (Table 2B). The protocol: as §1, §2
The next assay deals with C. auris AR Bank #385. Nature of the assay: MIC determination by in vitro antifungal assay. To be noted: C. auris AR Bank # 385 (Table 2B). The procedure:
as §1, §2

In the next assay the test system is C. auris AR Bank #386. Nature of the assay: MIC determination by in vitro antifungal assay. To be noted: C. auris AR Bank # 386 (Table 2B). The procedure:
as §1, §2

Another assay has as its system C. auris AR Bank #387. Nature of the assay: MIC determination by in vitro antifungal assay. To be noted: C. auris AR Bank # 387 (Table 2B). The protocol:
as §1, §2

The next assay deals with C. auris AR Bank #388. Nature of the assay: MIC determination by in vitro antifungal assay. The following applies: C. auris AR Bank # 388 (Table 2B). The procedure:
as §1, §2

The next assay relates to C. auris AR Bank #389. Nature of the assay: MIC determination by in vitro antifungal assay. To be noted: C. auris AR Bank # 389 (Table 2B). The procedure: as §1, §2
The test system of assay [1] is panel of ten C. auris strains (AR Bank #381-390). Briefly: MIC determination, summary over the C. auris panel. To be noted: Candidozyma auris; against all ten C. auris strains tested (AR Bank #381-390). The protocol: as §1, §2
[2] abbreviates: Candidozyma auris, read-out: MIC.

As to `O=C(NNc1cccc(Cl)c1)c1ccc(F)cc1F` [Compound 1b], the MIC is 3.9 µg/mL (≈ 13.8 µM) in the assay with C. auris AR Bank #381 (setting [2]); 3.9 µg/mL (≈ 13.8 µM) in the assay on C. auris AR Bank #382 (setting [2]); 15.6 µg/mL (≈ 55.2 µM) with C. auris AR Bank #383 (setting [2]); 3.9 µg/mL (≈ 13.8 µM) in the assay on C. auris AR Bank #385 (setting [2]); 7.8 µg/mL (≈ 27.6 µM) in the assay on C. auris AR Bank #386 (setting [2]); 7.8 µg/mL (≈ 27.6 µM) in the assay with C. auris AR Bank #387 (setting [2]). For the same molecule, the MIC in the assay with C. auris AR Bank #388 (setting [2]) and in the assay on C. auris AR Bank #389 (setting [2]) was 3.9 µg/mL (≈ 13.8 µM) each time.

For the molecule `O=C(NNc1cc(Cl)cc(Cl)c1)c1ccc(F)cc1F` [Compound 1j], the MIC was above 31.3 µg/mL in the assay on C. auris AR Bank #381 (setting [2]); 15.6 µg/mL (≈ 49.2 µM) in the assay on C. auris AR Bank #382 (setting [2]); above 31.3 µg/mL in the assay with C. auris AR Bank #383 (setting [2]); 31.3 µg/mL (≈ 98.7 µM) with C. auris AR Bank #385 (setting [2]); above 31.3 µg/mL in the assay on C. auris AR Bank #386 (setting [2]); above 31.3 µg/mL in the assay on C. auris AR Bank #387 (setting [2]). Besides, the MIC with C. auris AR Bank #388 (setting [2]) and in the assay with C. auris AR Bank #389 (setting [2]) was above 31.3 µg/mL throughout.

As for `COc1cccc(NNC(=O)c2ccc(F)cn2)c1` [Compound 3c], the MIC was determined as 0.98 μg/mL^−1 in the assay on C. auris AR Bank #381; 0.49 μg/mL^−1 against C. auris AR Bank #382; 0.98 μg/mL^−1 in the assay on C. auris AR Bank #383; 0.49 μg/mL^−1 against C. auris AR Bank #385; 0.98 μg/mL^−1 in the assay with C. auris AR Bank #386; 0.98 μg/mL^−1 in the assay on C. auris AR Bank #387. Also, the MIC with C. auris AR Bank #388 and against C. auris AR Bank #389 was 0.98 μg/mL^−1 throughout.

As to `O=C(NNc1ccc(F)cc1)c1ccc(F)cn1` [Compound 3d], the MIC came to 1.95 μg/mL^−1 with C. auris AR Bank #381; 0.98 μg/mL^−1 against C. auris AR Bank #382; 1.95 μg/mL^−1 with C. auris AR Bank #383; 0.98 μg/mL^−1 against C. auris AR Bank #385; 1.95 μg/mL^−1 with C. auris AR Bank #386; 0.98 μg/mL^−1 in the assay with C. auris AR Bank #387. Moreover, the MIC in the assay on C. auris AR Bank #388 and against C. auris AR Bank #389 was 1.95 μg/mL^−1 in each case.

`O=C(NNc1ccc(Cl)cc1)c1ccc(F)cn1` [Compound 3e]: the MIC was 7.8 μg/mL^−1 against C. auris AR Bank #381; 7.8 μg/mL^−1 with C. auris AR Bank #382; 3.9 μg/mL^−1 against C. auris AR Bank #383; 1.95 μg/mL^−1 with C. auris AR Bank #385; 7.8 μg/mL^−1 against C. auris AR Bank #386; 7.8 μg/mL^−1 in the assay with C. auris AR Bank #387. The MIC against C. auris AR Bank #388 and in the assay on C. auris AR Bank #389 was 7.8 μg/mL^−1 in each case.

With `O=C(NNc1ccc(F)cc1F)c1ccc(F)cn1` [Compound 3g], the MIC worked out at 1.95 µg/mL (≈ 7.3 µM) in the assay on C. auris AR Bank #381 (setting [2]); 1.95 µg/mL (≈ 7.3 µM) in the assay on C. auris AR Bank #382 (setting [2]); 1.95 µg/mL (≈ 7.3 µM) in the assay with C. auris AR Bank #383 (setting [2]); 0.49 µg/mL (≈ 1.83 µM) in the assay on C. auris AR Bank #385 (setting [2]); 1.95 µg/mL (≈ 7.3 µM) in the assay on C. auris AR Bank #386 (setting [2]); 0.98 µg/mL (≈ 3.67 µM) with C. auris AR Bank #387 (setting [2]). Also, the figures for the MIC (in the assay with C. auris AR Bank #388 (setting [2]); in the assay on C. auris AR Bank #389 (setting [2]); in assay [1]) were 1.95 µg/mL (≈ 7.3 µM), 1.95 µg/mL (≈ 7.3 µM) and 0.12 to 7.8 µg/mL (≈ 0.449 to 29.2 µM), respectively.

On to `O=C(NNc1ccc(F)cc1)c1ccc(Br)cn1` [Compound 4d], for which the MIC with C. auris AR Bank #381 (setting [2]) is 1.95 µg/mL (≈ 6.29 µM); with C. auris AR Bank #382 (setting [2]) it was 1.95 µg/mL (≈ 6.29 µM); in the assay on C. auris AR Bank #383 (setting [2]), 7.8 µg/mL (≈ 25.2 µM); in the assay with C. auris AR Bank #385 (setting [2]), 1.95 µg/mL (≈ 6.29 µM); in the assay with C. auris AR Bank #386 (setting [2]), 3.9 µg/mL (≈ 12.6 µM); in the assay on C. auris AR Bank #387 (setting [2]) it was 3.9 µg/mL (≈ 12.6 µM). The MIC in the assay on C. auris AR Bank #388 (setting [2]) was 1.95 µg/mL (≈ 6.29 µM); in the assay on C. auris AR Bank #389 (setting [2]), 3.9 µg/mL (≈ 12.6 µM); in assay [1], 0.12 to 7.8 µg/mL (≈ 0.387 to 25.2 µM).

On to `O=C(NNc1ccc(F)cc1)c1cccc(F)n1` [Compound 5d], for which the MIC with C. auris AR Bank #381 (setting [2]) is 0.98 µg/mL (≈ 3.93 µM); in the assay on C. auris AR Bank #382 (setting [2]), 0.98 µg/mL (≈ 3.93 µM); in the assay with C. auris AR Bank #383 (setting [2]) it was 1.95 µg/mL (≈ 7.82 µM); in the assay on C. auris AR Bank #385 (setting [2]), 0.49 µg/mL (≈ 1.97 µM); with C. auris AR Bank #386 (setting [2]) it was 0.98 µg/mL (≈ 3.93 µM); with C. auris AR Bank #387 (setting [2]) it was 0.49 µg/mL (≈ 1.97 µM). In addition, the MIC is 0.49 µg/mL (≈ 1.97 µM) in the assay on C. auris AR Bank #388 (setting [2]), 0.98 µg/mL (≈ 3.93 µM) in the assay on C. auris AR Bank #389 (setting [2]) and 0.06 to 1.95 µg/mL (≈ 0.241 to 7.82 µM) in assay [1].
